Data: US9745276B2, “Crystal modifications of elobixibat” (Elobix AB, priority 2013, dated 2017)

Tests used:
Type in all cases: physicochemical
[1] = Thermal gravimetric analysis (TGA) of water/solvent content; details: heated at 10° C./min from 25° C., dry nitrogen purge
Procedure: Approximately 1-5 mg of sample was added to a tared Platinum cup which was then placed in the weighting position of a Perkin-Elmer Pyris 1 TGA analyzer. The furnace was raised and the starting weight of the sample was recorded. The heating program was then started. The sample was heated at a rate of 10° C./min, starting at 25° C. and ending at 90-300° C., depending on where a constant temperature could be attained. The sample was purged with dry nitrogen gas during analysis.
A sample of crystal modification IV was analyzed with XRPD and the water content was checked with TGA. The weight loss for crystal modification IV was initially slow, but accelerated at about 50° C. and was finalized at about 80° C. A weight loss of 2.7% w/w was observed.
A sample of crystal modification I was analyzed with XRPD and the water content was checked with TGA. […] A weight loss of 0.99% w/w was observed.
The solvent content of a sample of EtOH-1 was analyzed with TGA.

[2] = Dynamic Vapor Sorption (DVS) analysis; details: after drying with dry nitrogen, two sorption-desorption cycles, 0 to 10% RH
Procedure: Approximately 15-20 mg of the sample was weighed into a quartz receptacle, which was then released of static electricity by exposing it to a radioactive source. The quartz receptacle was then positioned in a Surface Measurements System Ltd DVS Advantage instrument. The sample was dried with dry nitrogen gas until a dm/dt below 0.002% per minute was reached. The instrument was running in dm/dt-mode using a dm/dt window of 5 minutes, a minimum stage time of 10 minutes and a maximum stage time of 360 minutes. The sample was then subjected to two consecutive sorption-desorption cycles, using d/m/dt-mode parameters above, and each cycle running from 0-95-0% relative humidity (% RH). One cycle consisted of 20 steps, those between 0-90% RH were taken in 10% RH each.
A sample of crystal modification IV was weighed into the quartz scale pan of a Scientific Instruments Dynamic Vapor Sorption instrument. The sample was released of static electricity by moving a radioactive isotope over it and was then put into the instrument. The sample was dried by flushing dry nitrogen gas until the weight was constant and then two consecutive sorption-desorption cycles were run. Crystal modification IV absorbs approximately 2.45% water between 0 and 10% RH, and an additional 0.36 to 0.37% water between 10 and 60% RH. […]

[3] = Storage stability of the crystal modification (XRPD)
Procedure: Dry samples were lightly ground in an agate mortar, if needed, and were then smeared out on a sample holder. Slurry samples were added to the sample holder as wet and were analyzed both wet and dry. XRPD data were collected on a cut Silicon Zero Background Holder (ZBH) or on a Porous Alumina Filter Sample Holder, using a PANalytical X'Pert Pro diffractometer, equipped with an X'celerator or a PIXcel detector. The sample was spun during analysis and Cu-radiation was used. The following experimental settings were used:
A batch of crystal modification IV was stored in a closed glass vial and kept at 20° C. and between 20 and 60% RH for 17 months.

[4] = Relative thermodynamic stability of crystal modifications; details: normal conditions (21° C., 10-30% relative humidity)

| SMILES | TGA weight loss [1] | water absorbed between 0 and 10% RH [2] | crystalline form by XRPD after storage ([3]; closed glass vial, 20° C., between 20 and 60% RH, 17 months) | time of storage for which found stable ([3]; such as under ambient, open conditions) [months] | thermodynamic stability compared with crystal modification I and other crystal modifications of elobixibat [4] |
| --- | --- | --- | --- | --- | --- |
| CCCCC1(CCCC)CN(c2ccccc2)c2cc(SC)c(OCC(=O)N[C@@H](C(=O)NCC(=O)O)c3ccccc3)cc2S(=O)(=O)C1 [EtOH-1, N-{(2R)-2-[({[3,3-dibutyl-7-(methyl-thio)-1,1-dioxido-5-phenyl-2,3,4,5-tetrahydro-1,5-benzothiazepin-8-yl]oxy}acetyl)amino]-2-phenylethanolyl}glycine] | approximately 6 % w/w | – | – | – | – |
| CCCCC1(CCCC)CN(c2ccccc2)c2cc(SC)c(OCC(=O)N[C@@H](C(=O)NCC(=O)O)c3ccccc3)cc2S(=O)(=O)C1 [crystal modification I, N-{(2R)-2-[({[3,3-dibutyl-7-(methyl-thio)-1,1-dioxido-5-phenyl-2,3,4,5-tetrahydro-1,5-benzothiazepin-8-yl]oxy}acetyl)amino]-2-phenylethanolyl}glycine] | 0.99 % w/w | approximately 0.66% | – | – | – |
| CCCCC1(CCCC)CN(c2ccccc2)c2cc(SC)c(OCC(=O)N[C@@H](C(=O)NCC(=O)O)c3ccccc3)cc2S(=O)(=O)C1 [crystal modification IV, N-{(2R)-2-[({[3,3-dibutyl-7-(methyl-thio)-1,1-dioxido-5-phenyl-2,3,4,5-tetrahydro-1,5-benzothiazepin-8-yl]oxy}acetyl)amino]-2-phenylethanolyl}glycine] | 2.7 % w/w | approximately 2.45% | unchanged | ≥ 17 | more thermodynamically stable |
